Measured values from PMC9448371, “Synthesis and biological activity evaluation of 3-(hetero) arylideneindolin-2-ones as potential c-Src inhibitors” (Journal of Enzyme Inhibition and Medicinal Chemistry, 2022).

Legend:
[1] = target: T1, c-Src (Homo sapiens, UniProt P12931); assay: c-Src kinase inhibition assay (ADP-Glo Kinase Assay); format: biochemical; conditions: Table 3; for inhibition at 100 µM: 100 µM compound, read-out: % Inhibition 100 µM; for IC50: 100 μM ATP, read-out: ID50 (the source's name); for Ki: calculated from ID50 assuming fully ATP-competitive inhibition
T1 construct: His6 (N); purchased Merck-Millipore 14–326
Experimental: To avoid peptide adsorption to the plastic surface, protein low-binding tubes were used. ADP-Glo Kinase Assay (Promega) was then used to detect kinase activity accordingly with manufacturer’s instruction with minor modifications. In details, reactions were transferred to white 384 well-plates and stopped by adding 10 µL of ADP-Glo Reagent (Promega) for 50 min at rt. 20 μL of Detection Reagent (Promega) was then added for 30 min and the reaction read using GloMax Discover microplate reader (Promega). Data were plotted using GraphPad Prism 5.0. […] Compounds tested were assumed to act as fully ATP-competitive inhibitors. Therefore, Ki values were calculated accordingly to Equation (2).

[2] = system: human MCF7 breast cancer cell line; assay: Cytotoxicity, growth inhibition MTS assay; format: cell-based; conditions: mean ± SD, triplicate; for IC50: Homo sapiens, MCF7, 72 h exposure, read-out: MCF-7 (IC50)
Experimental: Cytotoxicity experiments were carried out using the human MCF7 breast cancer cell line (ATCC HTB-22). […] Compound potency was determined by a growth inhibition assay (CellTiter 96® Aqueous One Solution Cell Proliferation Assay MTS, Promega). 24 h after seeding in a 96-well plate, cells were exposed to the compounds (concentration range 1–100 µM) and 72 h later, 20 µL of 3–(4,5-dimethylthiazol-2-yl)-5–(3-carboxymethoxyphenyl)-2–(4-sulfophenyl)-2H-tetrazolium salt (MTS) was added to each well. […] Experiments were performed in triplicate.

[3] = 10 µM compound, tested as E/Z mixtures

T1 sequence (P12931 whole entry): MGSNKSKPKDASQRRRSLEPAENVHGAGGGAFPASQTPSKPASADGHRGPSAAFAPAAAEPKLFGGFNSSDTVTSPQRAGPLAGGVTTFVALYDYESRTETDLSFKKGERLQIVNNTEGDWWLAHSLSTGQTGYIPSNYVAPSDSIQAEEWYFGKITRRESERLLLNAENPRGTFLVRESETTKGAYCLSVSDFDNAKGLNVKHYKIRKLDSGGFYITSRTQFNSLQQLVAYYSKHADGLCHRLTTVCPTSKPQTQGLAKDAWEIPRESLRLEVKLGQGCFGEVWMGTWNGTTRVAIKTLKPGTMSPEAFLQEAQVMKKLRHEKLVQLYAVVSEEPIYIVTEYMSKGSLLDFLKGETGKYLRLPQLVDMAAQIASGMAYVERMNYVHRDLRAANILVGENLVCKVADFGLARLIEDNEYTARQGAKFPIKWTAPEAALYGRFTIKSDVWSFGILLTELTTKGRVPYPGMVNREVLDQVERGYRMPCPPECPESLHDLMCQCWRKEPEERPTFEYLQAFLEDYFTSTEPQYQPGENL

O=C1Nc2cc(Cl)ccc2C1=Cc1ccc2[nH]ccc2c1 [Compound 50, 3-((1H-indol-5-yl)methylene)-6-chloroindolin-2-one]
melting point: 238 to 239 °C | inhibition at 10 µM [1, 3]: 41.2 ± 1.12% | inhibition at 100 µM ([1]; tested as E/Z mixtures): 96.1 ± 1.42% | IC50 [1]: 9.14 µM | Ki [1]: 6.17 µM | IC50 [2]: 68 ± 2 µM

CN(C)c1ccc(C=C2C(=O)Nc3cc(Cl)ccc32)cc1 [Compound 34, 6-chloro-3–(4-(dimethylamino)benzylidene)indolin-2-one]
melting point: 253 to 254 °C | inhibition at 10 µM [1, 3]: 85% | % Inhibition 10 µM ([1]; 10 µM compound, tested as E/Z mixtures, listed as C00033, 10 µM): 85.35 ± 6.98% | inhibition at 100 µM ([1]; tested as E/Z mixtures): 75.7 ± 7.63% | IC50 [1]: 0.71 µM | Ki [1]: 0.48 µM | MCF-7 (IC50, μM) ([2]; 72 h exposure): did not show any cytotoxic activity | IC50 [2]: > 100 µM
